Laboratory results from US6737383B1, “Herbicidal oxadiazolidines” (priority 1999, dated 2004).

Experiments:
corn = test: Test B pre/postemergence corn; type: in vivo, Zea mays
Method in brief: (§1)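 Herbicidal effect was estimated by eye on a ten-point control scale after plants spent twelve to sixteen days in a greenhouse following soil or foliar treatment. Foliar sprays targeted plants at one to four leaves; all doses were formulated in a non-phytotoxic solvent with surfactant.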

morningglory = test: Test B pre/postemergence morningglory; type: in vivo, Ipomoea hederacea
Method in brief: as §1

surinam grass = test: Test B pre/postemergence surinam grass; type: in vivo, Brachiaria decumbens
Method in brief: as §1

smallflower flatsedge = test: Test B flood test smallflower flatsedge; type: in vivo, Cyperus difformis
Method in brief: (§2)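 Each value is a visual injury score relative to controls, with 10 meaning complete control and 0 no effect. Evaluation took place twelve to sixteen days after the 2-leaf-stage plants were treated and kept in the greenhouse.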

rape = test: Test B pre/postemergence rape; type: in vivo, Brassica napus
Method in brief: as §1

wheat = test: Test B pre/postemergence wheat; type: in vivo, Triticum aestivum
Method in brief: as §1

wild oat = test: Test B pre/postemergence wild oat; type: in vivo, Avena fatua
Method in brief: as §1

soybean = test: Test B pre/postemergence soybean; type: in vivo, Glycine max
Method in brief: as §1

velvetleaf = test: Test B pre/postemergence velvetleaf; type: in vivo, Abutilon theophrasti
Method in brief: as §1

giant foxtail = test: Test B pre/postemergence giant foxtail; type: in vivo, Setaria faberii
Method in brief: as §1

rice = test: Test B flood test rice; type: in vivo, Oryza sativa
Method in brief: as §2

blackgrass = test: Test B pre/postemergence blackgrass; type: in vivo, Alopecurus myosuroides
Method in brief: as §1

crabgrass = test: Test B pre/postemergence crabgrass; type: in vivo, Digitaria sanguinalis
Method in brief: as §1

purple nutsedge = test: Test B pre/postemergence purple nutsedge; type: in vivo, Cyperus rotundus
Method in brief: as §1

bedstraw = test: Test B pre/postemergence bedstraw; type: in vivo, Galium aparine
Method in brief: as §1

duck salad = test: Test B flood test duck salad; type: in vivo, Heteranthera limosa
Method in brief: as §2

[1] = Postemergence, Rate 125 g/ha, scale of 0 to 10 where 0 is no effect and 10 is complete control
[2] = Preemergence, Rate 62 g/ha, scale of 0 to 10 where 0 is no effect and 10 is complete control
[3] = Preemergence, Rate 125 g/ha, 0 is no effect, 10 is complete control
[4] = Preemergence, Rate 250 g/ha, scale 0 to 10, 0 is no effect, 10 is complete control
[5] = Preemergence, Rate 500 g/ha, scale 0 to 10 (0 no effect, 10 complete control)
[6] = Rate 62 g/ha, Postemergence, scale of 0 to 10 where 0 is no effect and 10 is complete control
[7] = Rate 250 g/ha, Postemergence, scale 0 to 10, 0 is no effect, 10 is complete control
[8] = Rate 500 g/ha, Postemergence, scale 0 to 10
[9] = Postemergence (flood test species), Rate 125 g/ha, scale of 0 to 10 where 0 is no effect and 10 is complete control
[10] = Rate 62 g/ha, Postemergence section, flood test species, scale of 0 to 10 where 0 is no effect and 10 is complete control
[11] = Rate 250 g/ha, Postemergence (flood test), scale 0 to 10, 0 is no effect, 10 is complete control
[12] = Rate 500 g/ha, listed under Postemergence (flood test species), scale 0 to 10

Structure (SMILES): Cc1nsc(C)c1-n1c(=O)on(C(=O)N(c2ccc(F)cc2F)C(C)C)c1=O [Compound 158]
- Corn plant response rating (corn; [1]): 0
- Corn plant response rating (corn; [2]): 0
- Corn plant response rating (0 to 10 scale) (corn; [3]): 0
- Corn plant response rating (corn; [4]): 2
- Corn plant response rating (corn; [5]): 2
- Corn plant response rating (corn; [6]): 0
- Plant response rating, Corn (corn; [7]): 0
- Corn plant response rating (corn; [8]): 0
- Morningglory plant response rating (morningglory; [1]): 2
- Morningglory plant response rating (morningglory; [2]): 0
- Morningglory plant response rating (0 to 10 scale) (morningglory; [3]): 0
- Morningglory plant response rating (morningglory; [4]): 1
- Morningglory plant response rating (morningglory; [5]): 2
- Morningglory plant response rating (morningglory; [6]): 0
- Plant response rating, Morningglory (morningglory; [7]): 2
- Morningglory plant response rating (morningglory; [8]): 2
- B. signalgrass plant response rating (surinam grass; [1]): 0
- B. signalgrass plant response rating (surinam grass; [2]): 0
- B. signalgrass plant response rating (0 to 10 scale) (surinam grass; [3]): 0
- B. signalgrass plant response rating (surinam grass; [4]): 0
- B. signalgrass plant response rating (surinam grass; [5]): 0
- B. signalgrass plant response rating (surinam grass; [6]): 0
- Plant response rating, B. signalgrass (surinam grass; [7]): 0
- B. signalgrass plant response rating (surinam grass; Rate 500 g/ha, Postemergence, scale 0 to 10, 0 no effect, 10 complete control): 0
- S. Flatsedge plant response rating (smallflower flatsedge; [9]): 0
- S. Flatsedge plant response rating (smallflower flatsedge; [10]): 0
- Plant response rating, S. Flatsedge (smallflower flatsedge; [11]): 0
- S. Flatsedge plant response rating (smallflower flatsedge; [12]): 0
- Rape plant response rating (rape; [1]): 0
- Rape plant response rating (rape; [2]): 0
- Rape plant response rating (0 to 10 scale) (rape; [3]): 0
- Rape plant response rating (rape; [4]): 0
- Rape plant response rating (rape; [5]): 0
- Rape plant response rating (rape; [6]): 0
- Plant response rating, Rape (rape; [7]): 0
- Rape plant response rating (rape; [8]): 0
- Wheat plant response rating (wheat; [2]): 0
- Wheat plant response rating (0 to 10 scale) (wheat; [3]): 0
- Wheat plant response rating (wheat; [4]): 0
- Wheat plant response rating (wheat; [5]): 0
- Plant response rating, Wheat (wheat; [7]): 0
- Wheat plant response rating (wheat; [8]): 0
- Wild oats plant response rating (wild oat; [2]): 0
- Wild oats plant response rating (0 to 10 scale) (wild oat; [3]): 0
- Wild oats plant response rating (wild oat; [4]): 0
- Wild oats plant response rating (wild oat; [5]): 2
- Plant response rating, Wild oats (wild oat; [7]): 0
- Wild oats plant response rating (wild oat; [8]): 0
- Soybean plant response rating (soybean; [1]): 3
- Soybean plant response rating (soybean; [2]): 0
- Soybean plant response rating (0 to 10 scale) (soybean; [3]): 0
- Soybean plant response rating (soybean; [4]): 0
- Soybean plant response rating (soybean; [5]): 0
- Soybean plant response rating (soybean; [6]): 3
- Plant response rating, Soybean (soybean; [7]): 4
- Soybean plant response rating (soybean; [8]): 5
- Velvetleaf plant response rating (velvetleaf; [2]): 0
- Velvetleaf plant response rating (0 to 10 scale) (velvetleaf; [3]): 0
- Velvetleaf plant response rating (velvetleaf; [4]): 0
- Velvetleaf plant response rating (velvetleaf; [5]): 0
- Plant response rating, Velvetleaf (velvetleaf; [7]): 0
- Velvetleaf plant response rating (velvetleaf; [8]): 0
- Giant foxtail plant response rating (giant foxtail; [1]): 0
- Giant foxtail plant response rating (giant foxtail; [2]): 3
- Giant foxtail plant response rating (0 to 10 scale) (giant foxtail; [3]): 4
- Giant foxtail plant response rating (giant foxtail; [4]): 7
- Giant foxtail plant response rating (giant foxtail; [5]): 8
- Giant foxtail plant response rating (giant foxtail; [6]): 0
- Plant response rating, Giant foxtail (giant foxtail; [7]): 4
- Giant foxtail plant response rating (giant foxtail; [8]): 5
- Rice plant response rating (rice; [9]): 0
- Rice plant response rating (rice; [10]): 0
- Plant response rating, Rice (rice; [11]): 0
- Rice plant response rating (rice; [12]): 0
- Blackgrass plant response rating (blackgrass; [1]): 1
- Blackgrass plant response rating (blackgrass; [2]): 0
- Blackgrass plant response rating (0 to 10 scale) (blackgrass; [3]): 0
- Blackgrass plant response rating (blackgrass; [5]): 3
- Blackgrass plant response rating (blackgrass; [6]): 1
- Plant response rating, Blackgrass (blackgrass; [7]): 2
- Blackgrass plant response rating (blackgrass; [8]): 5
- Crabgrass plant response rating (crabgrass; [1]): 0
- Crabgrass plant response rating (crabgrass; [2]): 3
- Crabgrass plant response rating (0 to 10 scale) (crabgrass; [3]): 3
- Crabgrass plant response rating (crabgrass; [4]): 4
- Crabgrass plant response rating (crabgrass; [5]): 7
- Crabgrass plant response rating (crabgrass; [6]): 0
- Plant response rating, Crabgrass (crabgrass; [7]): 3
- Crabgrass plant response rating (crabgrass; [8]): 4
- Nutsedge plant response rating (purple nutsedge; [1]): 0
- Nutsedge plant response rating (purple nutsedge; [2]): 0
- Nutsedge plant response rating (0 to 10 scale) (purple nutsedge; [3]): 0
- Nutsedge plant response rating (purple nutsedge; [4]): 0
- Nutsedge plant response rating (purple nutsedge; [5]): 0
- Nutsedge plant response rating (purple nutsedge; [6]): 0
- Plant response rating, Nutsedge (purple nutsedge; [7]): 0
- Nutsedge plant response rating (purple nutsedge; [8]): 0
- Bedstraw plant response rating (bedstraw; [1]): 0
- Bedstraw plant response rating (bedstraw; [2]): 0
- Bedstraw plant response rating (0 to 10 scale) (bedstraw; [3]): 0
- Bedstraw plant response rating (bedstraw; [4]): 0
- Bedstraw plant response rating (bedstraw; [5]): 0
- Bedstraw plant response rating (bedstraw; [6]): 0
- Plant response rating, Bedstraw (bedstraw; [7]): 0
- Ducksalad plant response rating (duck salad; [9]): 0
- Ducksalad plant response rating (duck salad; [10]): 0
- Plant response rating, Ducksalad (duck salad; [11]): 0
- Ducksalad plant response rating (duck salad; [12]): 0
